Measured values as given in patent US9040518B2, “Chemical compounds” (GlaxoSmithKline LLC, priority 2010, dated 2015).
Structures can show the parent of a compound that is named as a salt.

The compounds below were run against ileal bile acid cotransporter (iBAT) (Homo sapiens (Human), UniProt Q12908) (assay: Human iBAT inhibition: [3H]-taurocholate uptake into HEK293 cells expressing human iBAT). Conditions: HEK293 cells transduced with human iBAT Bacmam virus, 90 minutes at ambient temperature, mean of at least 2 datapoints.
Format: cell-based
Method: Method for Determination of Human iBAT Inhibition:
In preparation for measurement of bile acid uptake into cells expressing the ileal bile acid cotransporter (iBAT), HEK293 cells were cultured in DMEM/F12 supplemented with 10% FBS. Twenty four hours prior to running an experiment, cells were harvested when at a confluence of 80-90%. Cells were seeded in poly-d-lysine coated plates at 50,000 cells per well, and human iBAT Bacmam virus was added such that each well contains 3.67×10e6 pfu (73.4pfu/cell). Each assay plate was covered with Breathe Easy Seal and placed in an incubator for 24 hours to allow expression of the transporter.
On the day of the uptake experiment, 10 mM HEPES was added to Hank's Balanced Salt Solution, and the pH was adjusted to 7.4 with TRIS (HBSSH). The assay buffer was prepared by adding […] [^3H]-taurocholate and 10 μM cold taurocholate to room temperature HBSSH. A separate washing buffer was prepared by adding 10 μM cold taurocholate to HBSSH (˜30 ml per assay plate) and placed on ice. Using 100% DMSO, 8 point, 3-fold dilution curves for each test compound was prepared starting at 200 μM. Similarly, an 8 point dose response curve was prepared of the control compound [(3R,5R)-3-butyl-3-ethyl-7,8-bis(methyloxy)-5-phenyl-2,3,4,5-tetrahydro-1,4-benzothiazepine 1,1-dioxide (Brieaddy, L. E. WO9605188, 1996)] starting at 1.8 mM. Drug plates were created by adding 3 μL of each concentration to a v-bottom 96-well plate then diluted 60-fold with 177 μL of assay buffer. Plates were removed from the incubator and allowed to cool to ambient temperature. Media was aspirated, and wells were washed once with 300 μL HBSSH. 50 μL of each dose response curve concentration was added in triplicate by column to the assay plates, reserving column 10 for control (assay buffer+1.67% DMSO) and columns 11 and 12 for the control compound. Plates were incubated at ambient temperature for 90 minutes then the plates were aspirated then washed 1× with 300 μL of wash buffer. 220 μL of Microscint 20 was added to each well, and the plates were sealed. The amount of [^3H]-taurocholate in cell lysate was quantitated using a microplate scintillation counter on the following day.
IC50's can be generated using the formula, y=(Vmax*x^n)/(K^n+x^n).

Sequence of ileal bile acid cotransporter (iBAT) (Q12908 whole entry): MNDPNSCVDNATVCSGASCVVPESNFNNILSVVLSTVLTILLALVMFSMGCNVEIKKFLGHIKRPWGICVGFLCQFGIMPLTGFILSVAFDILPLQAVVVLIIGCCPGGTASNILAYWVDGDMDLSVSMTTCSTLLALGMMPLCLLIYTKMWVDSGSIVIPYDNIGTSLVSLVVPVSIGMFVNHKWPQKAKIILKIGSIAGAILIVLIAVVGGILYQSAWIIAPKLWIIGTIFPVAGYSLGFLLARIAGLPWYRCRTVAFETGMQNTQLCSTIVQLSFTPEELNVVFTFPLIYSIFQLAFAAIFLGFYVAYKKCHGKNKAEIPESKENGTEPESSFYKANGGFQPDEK

| IC50 | SMILES |
| --- | --- |
| 17 nM | CCCC[C@]1(CC)CS(=O)(=O)c2cc(CCC(=O)O)c(OC)cc2[C@@H](c2ccccc2)N1 [Example 10, 3-[(3R,5R)-3-butyl-3-ethyl-7-(methyloxy)-1,1-dioxido-5-phenyl-2,3,4,5-tetrahydro-1,4-benzothiazepin-8-yl]propanoic acid] |
| 276 nM | CCCC[C@]1(CC)CS(=O)(=O)c2cc(CCC(=O)NCC(=O)O)c(OC)cc2[C@@H](c2ccccc2)N1 [Example 14, N-{3-[(3R,5R)-3-butyl-3-ethyl-7-(methyloxy)-1,1-dioxido-5-phenyl-2,3,4,5-tetrahydro-1,4-benzothiazepin-8-yl]propanoyl}glycine] |
| 17 nM | CCCC[C@]1(CC)CS(=O)(=O)c2cc(CN(O)CC(=O)O)c(OC)cc2[C@@H](c2ccccc2)N1 [Example 48, N-{[(3R,5R)-3-butyl-3-ethyl-7-(methyloxy)-1,1-dioxido-5-phenyl-2,3,4,5-tetrahydro-1,4-benzothiazepin-8-yl]methyl}-N-hydroxyglycine] |
| 51 nM | CCCC[C@]1(CC)CS(=O)(=O)c2cc(CCP(=O)(O)O)c(OC)cc2[C@@H](c2ccccc2)N1 [Example 51, {2-[(3R,5R)-3-butyl-3-ethyl-7-(methyloxy)-1,1-dioxido-5-phenyl-2,3,4,5-tetrahydro-1,4-benzothiazepin-8-yl]ethyl}phosphonic acid bis-ammonium salt] |
| 249 nM | CCCC[C@]1(CC)CS(=O)(=O)c2cc(CNC(=O)CP(=O)(O)O)c(OC)cc2[C@@H](c2ccccc2)N1 [Example 38, [2-({[(3R,5R)-3-butyl-3-ethyl-7-(methyloxy)-1,1-dioxido-5-phenyl-2,3,4,5-tetrahydro-1,4-benzothiazepin-8-yl]methyl}amino)-2-oxoethyl]phosphonic acid trifluoroacetate salt] |
| 2 nM | CCCC[C@]1(CC)CS(=O)(=O)c2cc(CCCC(=O)O)c(OC)cc2[C@@H](c2ccccc2)N1 [Example 23, 4-[(3R,5R)-3-butyl-3-ethyl-7-(methyloxy)-1,1-dioxido-5-phenyl-2,3,4,5-tetrahydro-1,4-benzothiazepin-8-yl]butanoic acid trifluoroacetate salt] |

The next lines start with the compound.

| SMILES | IC50 |
| --- | --- |
| CCCC[C@]1(CC)CS(=O)(=O)c2cc(CNC(CC(=O)O)CC(=O)O)c(N(C)C)cc2[C@@H](c2ccccc2)N1 [Example 69, 3-({[(3R,5R)-3-butyl-7-(dimethylamino)-3-ethyl-1,1-dioxido-5-phenyl-2,3,4,5-tetrahydro-1,4-benzothiazepin-8-yl]methyl}amino)pentanedioic acid bis-ammonium salt] | 19 nM |
| CCCC[C@]1(CC)CS(=O)(=O)c2cc(CN3CCCC3=O)c(OC)cc2[C@@H](c2ccccc2)N1 [Example 31, 1-{[(3R,5R)-3-butyl-3-ethyl-7-(methyloxy)-1,1-dioxido-5-phenyl-2,3,4,5-tetrahydro-1,4-benzothiazepin-8-yl]methyl}-2-pyrrolidinone trifluoroacetate salt] | 407 nM |
| CCCC[C@]1(CC)CS(=O)(=O)c2cc(CNC(=O)C(=O)O)c(OC)cc2[C@@H](c2ccccc2)N1 [Example 64, ({[(3R,5R)-3-butyl-3-ethyl-7-(methyloxy)-1,1-dioxido-5-phenyl-2,3,4,5-tetrahydro-1,4-benzothiazepin-8-yl]methyl}amino)(oxo)acetic acid] | 6 nM |
| CCCC[C@]1(CC)CS(=O)(=O)c2cc(CP(=O)(O)O)c(OC)cc2[C@@H](c2ccccc2)N1 [Example 6, {[(3R,5R)-3-butyl-3-ethyl-7-(methyloxy)-1,1-dioxido-5-phenyl-2,3,4,5-tetrahydro-1,4-benzothiazepin-8-yl]methyl}phosphonic acid hydrochloride salt] | 23 nM |
| CCCC[C@]1(CC)CS(=O)(=O)c2cc(CNCC(=O)O)c(OC)cc2[C@@H](c2ccccc2)N1O [Example 46, N-{[(3R,5R)-3-butyl-3-ethyl-4-hydroxy-7-(methyloxy)-1,1-dioxido-5-phenyl-2,3,4,5-tetrahydro-1,4-benzothiazepin-8-yl]methyl}glycine] | 2 nM |
